The values below are quoted from earlier work in article PMC9014845 (Clinical cancer research : an official journal of the …, 2019).

Data set [1] has as its system patients with FGFR alterations. As to conditions: cited from earlier work.
Data set [2] deals with patients with FGFR alterations. As to conditions: 23 patients with FGFR alterations; cited from earlier work.

With `CCN1CCN(c2ccc(Nc3cc(N(C)C(=O)Nc4c(Cl)c(OC)cc(OC)c4Cl)ncn3)cc2)CC1` [BGJ398], in data set [1], the “Overall DCR” value is on record as 37%.
For the compound `COc1cc(OC)cc(N(CCNC(C)C)c2ccc3ncc(-c4cnn(C)c4)nc3c2)c1` [JNJ-42756493], in data set [2], the “Patients with stable disease for >3 months” value is 8 patients.
